Results: PubChem BioAssay AID2474 (The Scripps Research Institute Molecular Screening Center, 2010)

Molecular target: Hepatitis C virus NS3 helicase
Experiment: HCV NS3 helicase inhibitor potency, late-stage follow-up, biochemical, fluorescence, dose response (AID 2474)
Settings: recombinant NS3 helicase, fluorescence unwinding assay

| Compound | IC50 [nM] |
| --- | --- |
| COc1cccc(-n2c(SCc3cc(=O)oc4cc(O)c(O)cc34)nc3ccccc3c2=O)c1 | 2880 |
| CCCCCOc1ccc(C2C(C(=O)c3ccc(C)o3)=C(O)C(=O)N2c2cc(C)on2)cc1 (configuration not stated) | 1810 |
| Cc1ccc(C(=O)C2=C(O)C(=O)N(Cc3ccco3)C2c2cccc(Cl)c2)o1 (configuration not stated) | 6590 |
| COc1ccc(C=NNC(=O)c2cc(O)c(O)c(O)c2)cc1COc1ccc(C(=O)OCC(C)C)cc1 | 9370 |
| CCOc1cccc(C2C(C(=O)c3ccc(C)o3)=C(O)C(=O)N2Cc2ccccc2)c1 (configuration not stated) | 5290 |

The next molecules have a lower IC50 than those just listed; values first:

| IC50 [nM] | Compound |
| --- | --- |
| 1630 | COc1cc(C2C(C(=O)c3ccc(C)o3)=C(O)C(=O)N2c2cc(C)on2)ccc1OCc1ccccc1 (configuration not stated) |
| 1470 | Cc1cc(N2C(=O)C(O)=C(C(=O)c3ccc(C)o3)C2c2ccc(OCc3ccccc3)cc2)no1 (configuration not stated) |
